Converted amounts (≈) assume the structure as drawn. Values belong to the molecule of their own block, whether it stands above or below them.
Legend:
S. aureus = experiment: MIC against Gram-positive organisms: S. aureus; assay type: cell-based, Staphylococcus aureus; settings: for MIC: Staphylococcus aureus, read-out: Minimum inhibitory concentration (MIC) S. aureus
B. subtilis [1] = experiment: Resazurin microtiter MIC / serial dilution whole-cell assay; settings: for Minimum inhibitory concentration (MIC), lowest concentration preventing color change blue to pink: serial dilution 250 μM down to 7.9 μM, triplicate, plates incubated only 30 minutes due to experimental error
S. pneumoniae = experiment: MIC against Gram-positive organisms: S. pneumoniae; assay type: cell-based, Streptococcus pneumoniae; settings: for MIC: Streptococcus pneumoniae, read-out: Minimum inhibitory concentration (MIC) S. pneumoniae
B. subtilis [2] = experiment: MIC against Gram-positive organisms: B. subtilis; assay type: cell-based; settings: Bacillus subtilis; read-out: Minimum inhibitory concentration (MIC) B. subtilis
[3] = system: peptidoglycan synthesis/metabolism in B. subtilis; experiment: UDP-MurNAc-pentapeptide accumulation (nucleotide sugar extraction, C18-RP-HPLC); assay type: cell-based, Bacillus subtilis; settings: 4×MIC for 1 h after chloramphenicol pretreatment
Method: Ugi-derived terminal alkynes target peptidoglycan synthesis/metabolism. B. subtilis was grown to mid-exponential phase (O.D.600˜0.6) and all cultures treated with Chloramphenicol (Cm) ([…]) for 15 min. Cultures were then exposed to vancomycin (Van) ([…]) or fgkc (4×MIC) for 1 h. Nucleotide sugars were extracted with hot water and separated by C18-RP-HPLC. (*) denotes retention time of UDP-MurNAc-pentapeptide.

B. subtilis [4] = experiment: Single concentration (250 μM) whole-cell resazurin fluorescence assay; settings: for degree of inhibition (smallest values of fluorescence): 250 μM inhibitor, fluorescence at 60 min
P. difficile = experiment: MIC against Gram-positive organisms: P. difficile; assay type: cell-based, Clostridium difficile (Peptoclostridium difficile); settings: Clostridioides difficile; read-out: Minimum inhibitory concentration (MIC) P. difficile
LytG (GH73) = LytG (GH73) (Bacillus subtilis, UniProt O32083); experiment: In vitro GlcNAcase inhibition, turbidometric assay with purified peptidoglycan; assay type: biochemical, B. subtilis
Sequence of LytG (GH73) (O32083 30-282): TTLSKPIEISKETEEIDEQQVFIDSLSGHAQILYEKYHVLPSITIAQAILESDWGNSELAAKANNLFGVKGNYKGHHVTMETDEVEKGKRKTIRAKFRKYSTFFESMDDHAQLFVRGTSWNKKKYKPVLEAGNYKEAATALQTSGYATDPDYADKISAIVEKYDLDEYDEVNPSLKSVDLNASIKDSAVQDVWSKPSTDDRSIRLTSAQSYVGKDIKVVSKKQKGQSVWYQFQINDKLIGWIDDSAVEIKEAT
Description: FIG. 9 is a graph illustrating inhibition of LytG (GH73) from B. subtilis by fgka. The assay involved in vitro GlcNAcase inhibition of B. subtilis LytG by fgka, as measured using turbidometric assays with purified peptidoglycan (Horsburgh, et al., 2003, Biochemistry 42:257).

FlgJ (GH73) = FlgJ (GH73) (Salmonella typhimurium, UniProt P15931); experiment: Inhibition of FlgJ (GH73); assay type: biochemical, Salmonella enterica
Sequence of FlgJ (GH73) (P15931 whole entry): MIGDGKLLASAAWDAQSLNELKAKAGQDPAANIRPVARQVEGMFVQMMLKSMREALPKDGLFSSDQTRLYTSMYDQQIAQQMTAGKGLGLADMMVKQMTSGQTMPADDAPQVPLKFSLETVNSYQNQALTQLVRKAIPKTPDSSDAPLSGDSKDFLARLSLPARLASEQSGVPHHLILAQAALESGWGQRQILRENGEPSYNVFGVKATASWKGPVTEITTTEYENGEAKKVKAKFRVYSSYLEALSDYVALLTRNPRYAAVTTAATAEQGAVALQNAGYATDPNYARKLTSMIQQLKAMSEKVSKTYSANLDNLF
Method: Activity was measured as described in Herlihey, et al. 2014, J. Biol Chem 289(45):31029.

E. coli = settings: cited from earlier work

Compound: COc1ccc(C(C(=O)NCc2ccccc2)N(C(=O)c2ccccc2I)c2ccccc2)cc1 (stereo not shown) [fbqb]
- activity (structure-activity comparison) (B. subtilis [4]; 250 μM, compared to aliphatic derivatives): lower activity

Compound: CCCCNC(=O)C(C1CCCCC1)N(Cc1cn(C2OC(CO)C(O)C(O)C2NC(C)=O)nn1)C(=O)c1ccccc1I (stereo not shown) [BI.fgba]
- inhibition of GlcNAcase LytG (LytG (GH73)): inhibits
- inhibition of FlgJ (GH73) (FlgJ (GH73)): weak inhibition
- MIC (B. subtilis [1]; Bacillus subtilis, read-out: minimum inhibitory concentration (MIC)): 63 µM (≈ 45.8 µg/mL)
- bacteriostatic activity (B. subtilis [1]; bacterial strain B. subtilis): concentration-dependent bacteriostatic activity

Compound: C#CCN(C(=O)c1ccccc1I)C(C(=O)NCCCC)C1CCCCC1 (stereo not shown) [fgba]
- antibacterial activity against S. aureus (S. aureus): antibacterial activity
- MIC (S. aureus): 2.81 µg/mL (≈ 5.85 µM)
- inhibition of FlgJ (GH73) (FlgJ (GH73)): weak inhibition

Compound: O=C(NCc1ccccc1)C(C1CCCCC1)N(C(=O)c1ccccc1I)C1CCCCC1 (stereo not shown) [fgkb]
- antibacterial activity against B. subtilis Lyt G (B. subtilis [4]): antibacterial activity
- degree of inhibition (smallest values of fluorescence) (B. subtilis [4]): highest degree of inhibition

Compound: CC1=N[C@@H]2[C@@H](O)[C@H](O)[C@@H](CO)O[C@@H]2S1 [NAG-thiazoline]
- effect on the viability of E. coli (E. coli): no effect

Now from value to molecule, other results behind:

- MIC (S. aureus): 3.64 µg/mL (≈ 7.02 µM)
Compound: CCCCNC(=O)C(C1CCCCC1)N(C(=O)c1ccccc1I)c1ccccc1 (stereo not shown) [fgqa]

- Minimum inhibitory concentration (MIC), lowest concentration preventing color change blue to pink (B. subtilis [1]): 250 µM (≈ 88.6 µg/mL)
Compound: C#CCN(C(=O)c1ccccc1)C(C(=O)NCCCC)C1CCCCC1 (stereo not shown) [rgba]

- MIC (S. pneumoniae): 3.62 µg/mL (≈ 7.04 µM)
Compound: C#CCN(C(=O)c1ccccc1I)C(C(=O)NCc1ccccc1)C1CCCCC1 (stereo not shown) [fgbb]
- antibacterial activity against S. pneumoniae (S. pneumoniae): antibacterial activity

- MIC (B. subtilis [2]): 1.65 µg/mL (≈ 3 µM)
Compound: O=C(NC1CCCCC1)C(C1CCCCC1)N(C(=O)c1ccccc1I)C1CCCCC1 (stereo not shown) [fgkc]
- antibacterial activity against S. pneumoniae (S. pneumoniae): antibacterial activity
- UDP-MurNAc-pentapeptide accumulation [3]: results in UDP-MurNAc-pentapeptide accumulation
- antibacterial activity against B. subtilis Lyt G (B. subtilis [4]): antibacterial activity
- degree of inhibition (smallest values of fluorescence) (B. subtilis [4]): highest degree of inhibition

- MIC (P. difficile): 17.5 µg/mL (≈ 35.1 µM)
Compound: CCCCNC(=O)C(C1CCCCC1)N(C(=O)c1ccccc1I)C(C)(C)C (stereo not shown) [fgna]

- MIC (S. pneumoniae): 3.56 µg/mL (≈ 7.03 µM)
Compound: C#CCN(C(=O)c1ccccc1I)C(C(=O)NC1CCCCC1)C1CCCCC1 (stereo not shown) [fgbc]
- antibacterial activity against S. pneumoniae (S. pneumoniae): antibacterial activity

- Minimum inhibitory concentration (MIC), lowest concentration preventing color change blue to pink (B. subtilis [1]): 62.5 µM (≈ 30.3 µg/mL)
Compound: CCCCNC(=O)C(C1CCCCC1)N(C(=O)c1ccccc1I)C(C)C (stereo not shown) [fgoa]

- MIC (B. subtilis [2]): 11.5 µg/mL (≈ 22 µM)
Compound: CCCCNC(=O)C(C1CCCCC1)N(C(=O)c1ccccc1I)C1CCCCC1 (stereo not shown) [fgka]

Source: patent US10829440B2, “Antibacterial compounds and methods of making and using same” (Brown University, priority 2015, dated 2020)
